According to patent publication US9382517B2, “HCV full-length infectious cell culture systems and applications thereof” (priority 2012, dated 2016):

Legend:
[1] = tested on: Huh7.5 cells; experiment: Cytotoxicity assay, non-cytotoxic dose range (Example 3); type: cell-based, human; settings: at the doses used in this study
Protocol: A cytotoxicity assay was performed for PSI-7977, as we had not used this drug previously. The non-cytotoxic dose range for telaprevir, boceprevir, simeprevir, daclatasvir, and interferon-α2b was determined.

[2] = tested on: J6 full-length virus; experiment: HCV antiviral treatment of Huh7.5 cells infected with J6 full-length virus (fourth passage J6_LSGΔ33U); type: cell-based, hepatitis C virus (genotype 2a); settings: for inhibition of full-length J6 culture viruses: treatment 24 and 48 hours post-infection, HCV positive cells counted 72 hours post-infection
Protocol: (§1) Naïve Huh7.5 cells were infected with indicated viruses, and antiviral treatments were carried out at 24 and 48 hours post-infection. The HCV positive cells were counted 72 hours post-infection as previously described. Fourth passage J6 full-length J6_LSGΔ33U virus (Table 3) was used for treatment. Treatment experiments with recombinants J6^5′UTR-NS2/JFH1, J6^Core-NS2,NS3 protease, NS4A/JFH1 and J6^Core-NS2,NS5A/JFH1 were included for comparison. (A) Treatment with protease inhibitors (boceprevir and TMC435) and the NS5A inhibitor daclatasvir (BMS-790052). (B) Treatment with NS5B inhibitors. (C) Median effective concentrations (EC50) of the used inhibitors against the indicated viruses. *, range of two experiments; experiments with the lowest EC50 shown in A or B. In A and B, values are means of triplicate determinations.
(§2) HCV antiviral treatment. HCV antivirals were purchased from Acme Bioscience (Palo Alto, Calif.) and dissolved in dimethyl sulfoxide. Huh7.5 cells grown in poly-D-lysine-coated 96-well plates (Nunc) were infected with HCV and treated with antivirals 24 and 48 hours post-infection as previously described. Single HCV core positive cells were determined by immunostaining with C7-50 (Enzo Life Sciences) 72 hours post-infection.

[3] = tested on: TN full-length virus; experiment: HCV antiviral treatment of Huh7.5 cells infected with TN full-length virus (first passage TN_LSGF/A1226G/Q1773H); type: cell-based, hepatitis C virus (genotype 1a); settings: for inhibition of TN full-length virus: DAAs 24 hours post-infection, interferon-α2b 24 and 48 hours, HCV positive cells 72 hours post-infection
Protocol: (§3) Naïve Huh7.5 cells were infected with first passage virus stock of TN full-length recombinant TN_LSGF/A1226G/Q1773H; the ORF sequence of this virus stock is shown in FIGS. 16 and 17. A J6/JFH1 virus stock was treated in parallel. Antivirals were administered 24 hours post infection at the indicated doses; interferon-α2b was also administered 48 hours post infection. The number of HCV positive cells per well was determined 72 hours post infection. (A) Dose response curves for treatments with lead compound protease inhibitors telaprevir (VX-950), boceprevir (SCH503034), and simeprevir (TMC435), NS5A inhibitor daclatasvir (BMS-790052), and NS5B inhibitor PSI-7977, as well as interferon-α2b. Values are means of triplicate determinations with SEM. (B) Median effective concentrations (EC50) of the used inhibitors against the indicated viruses. Values for EC50 and 95% confidence interval are shown.
(§4) HCV antiviral treatment. HCV DAAs were purchased from Acme Bioscience (Palo Alto, Calif.) and dissolved in dimethyl sulfoxide. Inerferon-α2b was purchased from Schering-Plough (Kenilworth, N.J.).
Briefly, Huh7.5 cells grown in poly-D-lysine-coated 96-well plates (Nunc) were infected with HCV and treated with DAAs 24 hours post-infection. Treatment with interferon-α2b was performed at 24 and 48 hours post-infection. Single HCV Core and NS5A positive cells were determined 72 hours post-infection by immunostaining with combination of C7-50 (Enzo Life Sciences) and 9E10 antibodies. Dose response curves were fitted and EC50 values with 95% confidence interval were calculated in GraphPad Prim 4 (Graphpad).

[4] = tested on: J6/JFH1; experiment: HCV antiviral treatment of Huh7.5 cells infected with J6/JFH1 virus stock; type: cell-based, hepatitis C virus (genotype 2a); settings: stated for HCV of genotypes 1 and 2
Protocol: as §3, §4
Briefly, Huh7.5 cells grown in poly-D-lysine-coated 96-well plates (Nunc) were infected with HCV and treated with DAAs 24 hours post-infection. […] Single HCV Core and NS5A positive cells were determined 72 hours post-infection by immunostaining with combination of C7-50 (Enzo Life Sciences) and 9E10 antibodies. […]

[5] = tested on: J6/JFH1 with J6-specific NS3/NS4A protease; experiment: HCV antiviral treatment of Huh7.5 cells infected with J6/JFH1 with J6-specific NS3/NS4A protease; type: cell-based, hepatitis C virus (genotype 2a); settings: J6/JFH1 with J6-specific NS3/NS4A protease compared to J6^5′UTR-NS2/JFH1
Protocol: as §1, §2

[6] = tested on: J6/JFH1-based recombinant with TN NS5A; experiment: HCV antiviral treatment, J6/JFH1-based recombinant with TN NS5A; type: cell-based; settings: Hepatitis C virus, read-out: Median effective concentration (EC50)
[7] = J6 virus compared to J6^5′UTR-NS2/JFH1

Compound | cytotoxic effects [1] | fold lower EC50 compared to J6^5′UTR-NS2/JFH1 [2, 7] | inhibition of full-length J6 culture viruses [2] | inhibition of TN full-length virus [3] | other results
CC(C)(C)NC(=O)N[C@H](C(=O)N1C[C@H]2[C@@H]([C@H]1C(=O)NC(CC1CCC1)C(=O)C(N)=O)C2(C)C)C(C)(C)C (stereo partly drawn) [boceprevir] | No cytotoxic effects | – | – | – | –
CC(C)[C@H](N)C(=O)O[C@@H]1[C@@H](CO)O[C@@H](n2ccc(N)nc2=O)[C@]1(C)O [NM283] | – | ~6 fold | inhibited | – | –
C[C@@]1(F)[C@H](O)[C@@H](CO)O[C@H]1n1ccc(N)nc1=O [PSI-6130] | – | around 4 fold | inhibited | – | –
CC(C)OC(=O)[C@H](C)N[P@](=O)(OC[C@H]1O[C@@H](n2ccc(=O)[nH]c2=O)[C@](C)(F)[C@@H]1O)Oc1ccccc1 [PSI-7977] | No cytotoxic effects | – | – | dose-dependently inhibited | inhibition of HCV of genotype 2 (J6/JFH1) [4]: efficiently inhibit
CNC(=O)c1c(-c2ccc(F)cc2)oc2cc(N(CCO)S(C)(=O)=O)c(C3CC3)cc12 [HCV-796] | – | ~2 fold | inhibited | – | –
interferon-α2b | No cytotoxic effects | – | – | dose-dependently inhibited | –
COc1ccc2c(O[C@@H]3C[C@H]4C(=O)N[C@]5(C(=O)NS(=O)(=O)C6CC6)C[C@H]5/C=C\CCCCN(C)C(=O)[C@@H]4C3)cc(-c3nc(C(C)C)cs3)nc2c1C [TMC435, simeprevir] | No cytotoxic effects | – | inhibited | dose-dependently inhibited | fold higher EC50 than that found for J6^5′UTR-NS2/JFH1 [2, 7]: 2-3 fold; fold higher EC50 than that found for J6^5′UTR-NS2/JFH1 [5]: 2-3 fold
CCC[C@H](NC(=O)[C@@H]1[C@H]2CCC[C@H]2CN1C(=O)[C@@H](NC(=O)[C@@H](NC(=O)c1cnccn1)C1CCCCC1)C(C)(C)C)C(=O)C(=O)NC1CC1 [telaprevir] | No cytotoxic effects | – | – | – | –
COC(=O)N[C@H](C(=O)N1CCC[C@H]1c1nc(-c2ccc(-c3ccc(-c4c[nH]c([C@@H]5CCCN5C(=O)[C@@H](NC(=O)OC)C(C)C)n4)cc3)cc2)c[nH]1)C(C)C [daclatasvir] | No cytotoxic effects | – | – | – | EC50 ([3]; Hepatitis C virus, TN full-length virus, 72 hours post-infection, read-out: Median effective concentration (EC50)): 0.032 nM; EC50 [6]: 0.042 nM
